# Measurements taken from patent US8293780B1, “Anti-cancer agents based on 6-trifluoromethoxybenzimidazole derivatives and method of making” (U.S. Department of Energy, priority 2009, dated 2012).
# Counter-ions that a name gives are not always drawn.
# Test system: DU-145 cells (prostate carcinoma)
# Experiment: DU-145 cell growth inhibition, tetrazolium dye XTT viability endpoint
# Type: cell-based
# Conditions: Homo sapiens, triplicate, five half-logarithmic dilutions, read-out: DU145 TC50
# Description: Cell Preparation: DU-145 cells (prostate carcinoma; catalog #HTB-81) were obtained from the ATCC and propagated in EMEM with Earles BSS supplemented with 10% FBS (fetal bovine serum), 2 mM L-glutamine, 100 U/mL penicillin, 100 μg/mL streptomycin, 1 mM sodium pyruvate, and 0.1 mM NEAA (Non-Essential Amino Acids). DU-145 cells were passaged in T-75 flasks prior to use in the assay. On the day preceding the assay, the cells were split 1:2 to assure they were in an exponential growth phase at the time of infection. Total cell and viability quantification was performed using a hemocytometer and Trypan Blue dye exclusion. Cell viability was greater than 95% for the cells to be utilized in the assay. The cells were re-suspended at 1×10^5 cells per mL in tissue culture medium and added to the drug-containing microtiter plates in a volume of 100 μL.
# Plate Format: Each plate contained cell control wells (cells only), experimental compound evaluation wells (cells plus compound only), and test compound colorimetric control wells (compound only). Samples were initially tested in triplicate for inhibition of DU-145 cell growth at 10 μM concentration for each compound with a single colorimetric control well. Secondary assay tested the compounds in triplicate using five half-logarithmic dilutions.
# Tetrazolium Dye XTT Viability Endpoint: Following incubation at 37° C. in a 5% CO2 incubator, the test plates were stained with the tetrazolium dye XTT (2,3-bis(2-methoxy-4-nitro-5-sulfophenyl)-5-[(phenylamino)carbonyl]-2H-tetrazolium hydroxide). XTT was metabolized by the mitochondrial enzymes of metabolically active cells to a soluble formazan product, allowing rapid quantitative analysis of the inhibition of DU-145 […] by anti-prostate cancer test substances. XTT solution was prepared daily as a stock of 1 mg/mL in RPMI1640. Phenazine methosulfate (PMS) solution was prepared at 0.15 mg/mL in PBS (Phosphate—Buffered Saline) and stored in the dark at −20° C. XTT/PMS stock was prepared immediately before use by adding 40 μL of PMS per ml of XTT solution. Fifty microliters of XTT/PMS was added to each well of the plate and the plate was reincubated for 4 hours at 37° C. Plates were sealed with adhesive plate sealers and shaken gently or inverted several times to mix the soluble formazan product and the plate was read spectrophotometrically at 450/650 nm with a Molecular Devices Vmax plate reader.
# IC50 represents the concentration of a drug that is required for 50% inhibition in vitro.
row,Structure (SMILES),CC50 [µM]
1,"CC/C(=C(\c1ccccc1)c1ccc(OCCN(C)C)cc1)c1ccccc1 [Tamoxifen Citrate, reference compound]",20
2,FC(F)(F)Oc1ccc2nc(-c3ccco3)[nH]c2c1,1.8
3,FC(F)(F)Oc1ccc2nc(-c3cccnc3)[nH]c2c1,4.6
4,FC(F)(F)Oc1ccc2nc(-c3ccccc3)[nH]c2c1,0.9
5,CCc1nc2ccc(OC(F)(F)F)cc2[nH]1,> 10
6,Cc1nc2ccc(OC(F)(F)F)cc2[nH]1,> 10
